Patent publication US9169241B2, “Quinolinyloxyphenylsulfonamides” (Max-Planck-Gesellschaft Zur Forderung der Wissenschaften …, priority 2009, dated 2015)
Like-named read-outs stand apart in the source and are kept apart here.

What was measured:
Type in all cases: cell-based
U138 = experiment: Apoptosis assay (Cellomics, nucleus condensation); settings: Table III, read-out: Apoptosis induction in U138
Method in brief: (§1)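 Readout: per-nucleus Hoechst 33342 fluorescence intensity and its population variation, plus number of detected cells, by automated CCD imaging. Live cells, 5000/well; compound 0.39–12.5 μM (twofold series) vs DMSO, read at 24 h and 48 h.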

Hs578T = experiment: Apoptosis assay (Cellomics, nucleus condensation); settings: Homo sapiens, Hs-578T, Table III, read-out: Apoptosis induction in Hs578T
Method in brief: as §1

C8161 [1] = experiment: Apoptosis assay (Cellomics, nucleus condensation); settings: Homo sapiens, Table III, read-out: Apoptosis induction in C8161
Method in brief: as §1

U118 = experiment: Apoptosis assay (Cellomics, nucleus condensation); settings: Table III, read-out: Apoptosis induction in U118
Method in brief: as §1

SF763 = experiment: Apoptosis assay (Cellomics, nucleus condensation); settings: Table III, read-out: Apoptosis induction in SF763
Method in brief: as §1

SF126 = experiment: Apoptosis assay (Cellomics, nucleus condensation); settings: Homo sapiens, SF-126, Table III, read-out: Apoptosis induction in SF126
Method in brief: as §1

tumor cell = experiment: Matrigel outgrowth assay/branching assay (Table Va)
Method in brief: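 Step one: Matrigel (3 mg/ml) is set for 1 h at 37° C. Step two: 5000 cells per well go on in medium with compound (0.78–3.125 μM) or DMSO. Step three: images at 48, 72 and 96 h are scored for complete loss of branching.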

C8161 [2] = experiment: Cell vitality assay (ATP assay, CellTiter-Glo); settings: Homo sapiens; C8161, 72 h; Table IIa; read-out: IC50 ATP-Assay after 72 h C8161
Method in brief: (§2)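 Cells (1000/well) incubated 72 h with test compound, top dose 12.5 μM, twofold dilutions, DMSO as reference. Lysis reagent added, luminescence recorded; background from cell-free medium wells.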

A172 = experiment: Cell vitality assay (ATP assay, CellTiter-Glo); settings: Homo sapiens, A 172; A172, 72 h; Table IIa; read-out: IC50 ATP-Assay after 72 h A172
Method in brief: as §2

viable cells in culture = experiment: Cell viability assay at 10 μM (CellTiter-Glo, Table VII); settings: compound 10 μM, 72 h;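 also: graded A 0-20%; B 21-40%; C 41-60%; D over 60% viable cells relative to DMSO control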
Method in brief: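 Viable cell number was measured with the CellTiter-Glo Luminescent Cell Viability Assay (Promega), following the manufacturer's protocol, which quantifies ATP as a marker of metabolically active cells. In 96-well plates, 1000 cells/well in 100 μl medium were exposed to compound at 10 μM, or to DMSO control, for 72 h. Values were calculated relative to DMSO-control ATP.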

MDA-MB231 = experiment: Cell vitality assay (ATP assay, CellTiter-Glo); settings: Homo sapiens, MDA-MB-231
Method in brief: as §2

[3] = Homo sapiens, C8161 cells, read-out: Total branching inhibition in Matrigel C8161
[4] = Homo sapiens, Hs-578T, Hs578T cells, read-out: Total branching inhibition in Matrigel Hs578T
[5] = U118 cells, read-out: Total branching inhibition in Matrigel U118
[6] = U138 cells, read-out: Total branching inhibition in Matrigel U138
[7] = Homo sapiens, HCT-116, HCT116 def, read-out: percentage (%) of viable cells HCT 116def
[8] = Homo sapiens, HCT-116, HCT116 wt, read-out: percentage (%) of viable cells HCT 116wt
[9] = Homo sapiens, HT-29, HT29, read-out: percentage (%) of viable cells HT29
[10] = Homo sapiens, NCI-H358, H358, read-out: percentage (%) of viable cells H358
[11] = Homo sapiens, NCI-H1650, H1650, read-out: percentage (%) of viable cells H1650
[12] = Homo sapiens, NCI-H1666, H1666, read-out: percentage (%) of viable cells H1666
[13] = Homo sapiens, NCI-H1975, H1975, read-out: percentage (%) of viable cells H1975
[14] = Homo sapiens, NCI-H1993, H1993, read-out: percentage (%) of viable cells H1993
[15] = Homo sapiens, A549, read-out: percentage (%) of viable cells A549
[16] = Homo sapiens, HCC827, read-out: percentage (%) of viable cells HCC827
[17] = Homo sapiens, SW480, read-out: percentage (%) of viable cells SW480
[18] = RKO, read-out: percentage (%) of viable cells RKO
[19] = cell vitality assay, MDA-MB231, Table IIc, read-out: IC50 MDA-MB231
[20] = MDA-MB231, 72 h, Table IIa, read-out: IC50 ATP-Assay after 72 h MDA-MB231

SMILES | IC50 (U138) | IC50 (Hs578T) | IC50 (C8161 [1]) | IC50 (SF763) | IC50 (SF126) | IC50 (tumor cell; [3]) | IC50 (tumor cell; [4]) | IC50 (tumor cell; [5]) | IC50 (tumor cell; [6]) | IC50 (C8161 [2]) | viability at 10 µM (viable cells in culture; [7]) | viability at 10 µM (viable cells in culture; [8]) | viability at 10 µM (viable cells in culture; [9]) | viability at 10 µM (viable cells in culture; [10]) | viability at 10 µM (viable cells in culture; [11]) | viability at 10 µM (viable cells in culture; [12]) | viability at 10 µM (viable cells in culture; [13]) | viability at 10 µM (viable cells in culture; [14]) | viability at 10 µM (viable cells in culture; [15]) | viability at 10 µM (viable cells in culture; [16]) | also measured
COc1cc2c(Oc3ccc(NS(=O)(=O)c4cc(F)ccc4F)cc3F)ccnc2cc1OCCCN1CCN(C)CC1 [Example 12, 2,5-Difluoro-N-(3-fluoro-4-{6-methoxy-7-[3-(4-methyl-piperazin-1-yl)-propoxy]-quinolin-4-yloxy}-phenyl)-benzenesulfonamide] |  |  | 12.5 to 50 µM |  |  | ≤ 5 µM | ≤ 5 µM | ≤ 5 µM | ≤ 5 µM |  | 21 to 40% | 21 to 40% | 21 to 40% | 0 to 20% | 21 to 40% | 41 to 60% | 41 to 60% | 41 to 60% | > 60% | 21 to 40% | IC50 (MDA-MB231; [19]): ≤ 12.5 µM; IC50 (A172): ≤ 12.5 µM; viability at 10 µM (viable cells in culture; [17]): 21 to 40%; viability at 10 µM (viable cells in culture; [18]): 0 to 20%
COc1cc2c(Oc3ccc(NS(=O)(=O)c4cccc(Oc5ccccc5)c4)cc3F)ccnc2cc1OCCCN1CCN(C)CC1 [Example 14, N-(3-Fluoro-4-{6-methoxy-7-[3-(4-methyl-piperazin-1-yl)-propoxy]-quinolin-4-yloxy}-phenyl)-3-phenoxy-benzenesulfonamide] | ≤ 12.5 µM | ≤ 12.5 µM | ≤ 12.5 µM | ≤ 12.5 µM | ≤ 12.5 µM | 5 to 50 µM | 5 to 50 µM | ≤ 5 µM | 5 to 50 µM | ≤ 12.5 µM | 21 to 40% | 0 to 20% | 0 to 20% | 21 to 40% | 21 to 40% | 41 to 60% | 21 to 40% | 0 to 20% | 41 to 60% | 21 to 40% | IC50 (U118): 12.5 to 50 µM; IC50 (MDA-MB231; [20]): ≤ 12.5 µM; viability at 10 µM (viable cells in culture; [17]): 0 to 20%; viability at 10 µM (viable cells in culture; [18]): 0 to 20%
COc1cc2c(Oc3ccc(NS(=O)(=O)c4ccccc4[N+](=O)[O-])cc3F)ccnc2cc1OCCCN1CCN(C)CC1 [Example 21, N-(3-Fluoro-4-{6-methoxy-7-[3-(4-methyl-piperazin-1-yl)-propoxy]-quinolin-4-yloxy}-phenyl)-2-nitro-benzenesulfonamide] | 12.5 to 50 µM | ≤ 12.5 µM | ≤ 12.5 µM | ≤ 12.5 µM | ≤ 12.5 µM | 5 to 50 µM | ≤ 5 µM | 5 to 50 µM | 5 to 50 µM | 12.5 to 50 µM | 41 to 60% | > 60% | 21 to 40% | 21 to 40% | 41 to 60% | 41 to 60% | 41 to 60% | 21 to 40% | > 60% | > 60% | IC50 (U118): ≤ 12.5 µM; IC50 (MDA-MB231; [20]): 12.5 to 50 µM; viability at 10 µM (viable cells in culture; [17]): 21 to 40%; viability at 10 µM (viable cells in culture; [18]): 41 to 60%
COc1cc2c(Oc3ccc(NS(=O)(=O)c4ccccc4C(F)(F)F)cc3F)ccnc2cc1OCCCN1CCN(C)CC1 [Example 24, N-(3-Fluoro-4-{6-methoxy-7-[3-(4-methyl-piperazin-1-yl)-propoxy]-quinolin-4-yloxy}-phenyl)-2-trifluoromethyl-benzenesulfonamide] |  |  | ≤ 12.5 µM |  |  | ≤ 5 µM | ≤ 5 µM | ≤ 5 µM | 5 to 50 µM |  |  |  |  |  |  |  |  |  |  |  | IC50 (MDA-MB231; [19]): ≤ 12.5 µM

Now from value to compound, other results behind:

IC50 (U138) | IC50 (Hs578T) | IC50 (C8161 [1]) | IC50 (SF763) | IC50 (SF126) | IC50 (tumor cell; [3]) | IC50 (tumor cell; [4]) | IC50 (tumor cell; [5]) | IC50 (tumor cell; [6]) | SMILES | IC50 (C8161 [2]) | viability at 10 µM (viable cells in culture; [7]) | viability at 10 µM (viable cells in culture; [8]) | viability at 10 µM (viable cells in culture; [9]) | viability at 10 µM (viable cells in culture; [10]) | viability at 10 µM (viable cells in culture; [11]) | viability at 10 µM (viable cells in culture; [12]) | viability at 10 µM (viable cells in culture; [13]) | viability at 10 µM (viable cells in culture; [14]) | viability at 10 µM (viable cells in culture; [15]) | viability at 10 µM (viable cells in culture; [16]) | also measured
12.5 to 50 µM | ≤ 12.5 µM | ≤ 12.5 µM | ≤ 12.5 µM | ≤ 12.5 µM | ≤ 5 µM | ≤ 5 µM | ≤ 5 µM | ≤ 5 µM | COc1cc2c(Oc3ccc(NS(=O)(=O)c4cccc(-c5ccccc5)c4)cc3F)ccnc2cc1OCCCN1CCCCC1 [Example 8, Biphenyl-3-sulfonic acid {3-fluoro-4-[6-methoxy-7-(3-piperidin-1-yl-propoxy)-quinolin-4-loxy]-phenyl}-amide] | ≤ 12.5 µM | 0 to 20% | 0 to 20% | 21 to 40% | 0 to 20% | 0 to 20% | 21 to 40% | 0 to 20% | 0 to 20% | 41 to 60% | 0 to 20% | IC50 (U118): ≤ 12.5 µM; IC50 (A172): ≤ 12.5 µM; viability at 10 µM (viable cells in culture; [17]): 0 to 20%; viability at 10 µM (viable cells in culture; [18]): 21 to 40%
≤ 12.5 µM | ≤ 12.5 µM | ≤ 12.5 µM | ≤ 12.5 µM | ≤ 12.5 µM | ≤ 5 µM | ≤ 5 µM | ≤ 5 µM | 5 to 50 µM | COc1cc2c(Oc3ccc(NS(=O)(=O)c4ccccc4OC(F)(F)F)cc3F)ccnc2cc1OCCCN1CCN(C)CC1 [Example 25, N-(3-Fluoro-4-{6-methoxy-7-[3-(4-methyl-piperazin-1-yl)-propoxy]-quinolin-4-yloxy}-phenyl)-2-trifluoromethoxy-benzenesulfonamide] | ≤ 12.5 µM |  |  |  |  |  |  |  |  |  |  | IC50 (U118): ≤ 12.5 µM; IC50 (MDA-MB231; [20]): ≤ 12.5 µM
12.5 to 50 µM | ≤ 12.5 µM | ≤ 12.5 µM | ≤ 12.5 µM | ≤ 12.5 µM | ≤ 5 µM | ≤ 5 µM | ≤ 5 µM | 5 to 50 µM | COc1cc2c(Oc3ccc(NS(=O)(=O)c4ccccc4Cl)cc3F)ccnc2cc1OCCCN1CCN(C)CC1 [Example 29, 2-Chloro-N-(3-fluoro-4-{6-methoxy-7-[3-(4-methyl-piperazin-1-yl)-propoxy]-quinolin-4-yloxy}-phenyl)-benzenesulfonamide] | ≤ 12.5 µM | 0 to 20% | 0 to 20% | 0 to 20% | 21 to 40% | 21 to 40% | 41 to 60% | 0 to 20% | 0 to 20% | 41 to 60% | 21 to 40% | IC50 (MDA-MB231; [20]): ≤ 12.5 µM; viability at 10 µM (viable cells in culture; [17]): 0 to 20%; viability at 10 µM (viable cells in culture; [18]): 0 to 20%
 |  |  |  |  | ≤ 5 µM | ≤ 5 µM | ≤ 5 µM | 5 to 50 µM | COC(=O)c1sccc1S(=O)(=O)Nc1ccc(Oc2ccnc3cc(OCCCN4CCCC(C)C4)c(OC)cc23)c(F)c1 (stereo not drawn) [Example 66, 3-(3-Fluoro-4-{6-methoxy-7-[3-(3-methyl-piperidin-1-yl)-propoxy]-quinolin-4-yloxy}-phenylsulfamoyl)-thiophene-2-carboxylic acid methyl ester] |  |  |  |  |  |  |  |  |  |  |  | IC50 (MDA-MB231; [19]): ≤ 12.5 µM; IC50 (A172): ≤ 12.5 µM
